Measurements as given in patent US20260262643A1, “HERBICIDAL BENZOXAZINES” (FMC CORPORATION, priority 2022, published 2026).

Columns and labels:
pigweed, palmer [1] = assay: Test C preemergence; assay type: in vivo, Amaranthus palmeri; details: Preemergence, 1000 g ai/ha; visual rating after 10 days, 0 to 100 scale (0 no effect, 100 complete control)
Summary of the method: (§1)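 Greenhouse herbicide screen, 10-day duration. Test chemicals in solvent/surfactant blend were sprayed onto soil at sowing (pre) or onto 2–10 cm seedlings at one to two leaves (post); injury scored visually against controls, 0 no effect to 100 complete control.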

blackgrass [2] = assay: Test C preemergence; assay type: in vivo, Alopecurus myosuroides; details: Preemergence, 1000 g ai/ha; visual rating after 10 days, 0 to 100 scale (0 no effect, 100 complete control)
Summary of the method: as §1

kochia [3] = assay: Test C postemergence; assay type: in vivo, Bassia scoparia; details: Postemergence, 1000 g ai/ha
Summary of the method: as §1

ragweed [4] = assay: Test C preemergence; assay type: in vivo, Ambrosia artemisiifolia; details: Preemergence, 1000 g ai/ha; visual rating after 10 days, 0 to 100 scale (0 no effect, 100 complete control)
Summary of the method: as §1

green foxtail [5] = assay: Test C postemergence; assay type: in vivo, Setaria viridis; details: Postemergence, 1000 g ai/ha
Summary of the method: as §1

ragweed [6] = assay: Test C postemergence; assay type: in vivo, Ambrosia artemisiifolia; details: Postemergence, 1000 g ai/ha
Summary of the method: as §1

ryegrass, Italian [7] = assay: Test C postemergence; assay type: in vivo, Lolium multiflorum; details: Postemergence, 1000 g ai/ha
Summary of the method: as §1

barnyardgrass [8] = assay: Test C postemergence; assay type: in vivo, Echinochloa crusgalli; details: Postemergence, 1000 g ai/ha
Summary of the method: as §1

ryegrass, Italian [9] = assay: Test C preemergence; assay type: in vivo, Lolium multiflorum; details: Preemergence, 1000 g ai/ha; visual rating after 10 days, 0 to 100 scale (0 no effect, 100 complete control)
Summary of the method: as §1

pigweed, palmer [10] = assay: Test C postemergence; assay type: in vivo, Amaranthus palmeri; details: Postemergence, 1000 g ai/ha
Summary of the method: as §1

green foxtail [11] = assay: Test C preemergence; assay type: in vivo, Setaria viridis; details: Preemergence, 1000 g ai/ha; visual rating after 10 days, 0 to 100 scale (0 no effect, 100 complete control)
Summary of the method: as §1

barnyardgrass [12] = assay: Test C preemergence; assay type: in vivo, Echinochloa crusgalli; details: Preemergence, 1000 g ai/ha; visual rating after 10 days, 0 to 100 scale (0 no effect, 100 complete control)
Summary of the method: as §1

horseweed = assay: Test C postemergence; assay type: in vivo, Erigeron canadensis; details: Postemergence, 1000 g ai/ha
Summary of the method: as §1

blackgrass [13] = assay: Test C postemergence; assay type: in vivo, Alopecurus myosuroides; details: Postemergence, 1000 g ai/ha
Summary of the method: as §1

kochia [14] = assay: Test C preemergence; assay type: in vivo, Bassia scoparia; details: Preemergence, 1000 g ai/ha; visual rating after 10 days, 0 to 100 scale (0 no effect, 100 complete control)
Summary of the method: as §1

galium = assay: Test C postemergence; assay type: in vivo, Galium aparine; details: Postemergence, 1000 g ai/ha
Summary of the method: as §1

corn [15] = assay: Test C postemergence; assay type: in vivo, Zea mays; details: Postemergence, 1000 g ai/ha, 10 days, visual 0 to 100 scale (0 no effect, 100 complete control)
Description: (§2) Seeds of plant species selected from barnyardgrass (Echinochloa crusgalli), blackgrass (Alopecurus myosuroides), corn (Zea mays), foxtail, giant (giant foxtail, Setaria faberi), green foxtail (Setaria viridis), goosegrass (Eleusine indica), kochia (Bassia scoparia), oat, wild (wild oat, Avena fatua), pigweed, palmer (palmer amaranth, palmer pigweed, Amaranthus palmeri), Pigweed, Redroot (redroot pigweed, Amaranthus retroflexus), ragweed (common ragweed, Ambrosia artemisiifolia), ryegrass, Italian ([…] ryegrass, Lolium multiflorum), soybean (Glycine max), and wheat (Triticum aestivum) were planted into a blend of loam soil and sand and treated preemergence with a directed soil spray using test chemicals formulated in a non-phytotoxic solvent mixture which included a surfactant. At the same time, plants selected from these crops and weed species and also galium (catchweed bedstraw, Galium aparine) and horseweed (Erigeron canadensis) were planted in pots containing the same blend of loam soil and sand and treated with postemergence applications of test chemicals formulated in the same manner. Plants ranged in height from 2 to 10 cm and were in the one- to two-leaf stage for the postemergence treatment. Treated plants and untreated controls were maintained in a greenhouse for 10 days, after which time all treated plants were compared to untreated controls and visually evaluated for injury. Plant response ratings, summarized in Table C, are based on a 0 to 100 scale where 0 is no effect and 100 is complete control. A dash (-) response means no test result.

corn [16] = assay: Test C preemergence; assay type: in vivo, Zea mays; details: Preemergence, 1000 g ai/ha; visual rating after 10 days, 0 to 100 scale (0 no effect, 100 complete control)
Description: as §2

[17] = 10 days, visual 0 to 100 scale (0 no effect, 100 complete control)
[18] = 0 to 100 scale, 0 no effect, 100 complete control

| SMILES | Plant response rating, Pigweed, Palmer (pigweed, palmer [1]) | Plant response rating, Blackgrass (blackgrass [2]) | Plant response rating, Kochia (kochia [3]; [17]) | Plant response rating, Ragweed (ragweed [4]) | Plant response rating, Foxtail, Green (green foxtail [5]; [17]) | Plant response rating, Ragweed (ragweed [6]; [17]) | Plant response rating, Ryegrass, Italian (ryegrass, Italian [7]; [17]) | Plant response rating, Barnyardgrass (barnyardgrass [8]; [17]) | Plant response rating, Ryegrass, Italian (ryegrass, Italian [9]) | Plant response rating, Pigweed, Palmer (pigweed, palmer [10]; [17]) | Plant response rating, Foxtail, Green (green foxtail [11]) | Plant response rating, Barnyardgrass (barnyardgrass [12]) | Plant response rating, Horseweed (horseweed; [17]) | Plant response rating, Blackgrass (blackgrass [13]; [17]) | Plant response rating, Kochia (kochia [14]) | Plant response rating, Galium (galium; [17]) | Plant response rating, Kochia (kochia [3]; [18]) | Plant response rating, Foxtail, Green (green foxtail [5]; [18]) | Plant response rating, Ragweed (ragweed [6]; [18]) | Plant response rating, Barnyardgrass (barnyardgrass [8]; [18]) | further results |
| --- | --- | --- | --- | --- | --- | --- | --- | --- | --- | --- | --- | --- | --- | --- | --- | --- | --- | --- | --- | --- | --- |
| COc1ccc(-c2cccc(C(=O)N3C[C@H](C)Oc4c(Cl)cccc43)c2)cn1 [Compound 385] | 50 | 0 | 70 | 0 | 20 | 50 | 10 | 20 | 50 | 70 | 90 | 30 | 0 | 30 | 0 | 60 | – | – | – | – | – |
| CCOC(=O)c1cncn1-c1cccc(C(=O)N2C[C@H](C)Oc3c(C)cccc32)c1 [Compound 298] | 40 | 0 | 0 | 0 | 0 | 40 | 0 | 0 | 0 | 0 | 30 | 0 | 0 | 0 | 50 | 20 | – | – | – | – | – |
| Cc1cc(-c2cccc(C(=O)N3C[C@H](C)Oc4c(C)cccc43)c2)ccn1 [Compound 163] | 0 | 10 | – | 0 | – | – | – | – | 20 | – | 10 | 0 | – | – | 0 | – | 50 | 10 | 20 | 0 | Plant response rating, Ryegrass, Italian (ryegrass, Italian [7]; [18]): 0; Plant response rating, Pigweed, Palmer (pigweed, palmer [10]; [18]): 30; Plant response rating, Horseweed (horseweed; [18]): 0; Plant response rating, Blackgrass (blackgrass [13]; [18]): 20; Plant response rating, Galium (galium; [18]): 0 |
| C[C@H]1CN(C(=O)c2cccc(-c3cn(C)cn3)c2)c2cccc(Cl)c2O1 [Compound 293] | 10 | 0 | 0 | 0 | 0 | 0 | 0 | 0 | 0 | 10 | 0 | 0 | 30 | 0 | 0 | 0 | – | – | – | – | – |
| C[C@H]1CN(C(=O)c2cccc(-c3cncc(Cl)c3)c2)c2cccc(Cl)c2O1 [Compound 384] | 30 | 0 | 50 | 0 | 10 | 0 | 0 | 10 | 0 | 60 | 30 | 0 | 0 | 10 | 0 | 40 | – | – | – | – | – |
| Cc1cnc(-c2cccc(C(=O)N3C[C@H](C)Oc4c(C)cccc43)c2)cn1 [Compound 162] | 30 | 30 | – | 0 | – | – | – | – | 70 | – | 90 | 60 | – | – | 0 | – | 70 | 10 | 20 | 10 | Plant response rating, Ryegrass, Italian (ryegrass, Italian [7]; [18]): 40; Plant response rating, Pigweed, Palmer (pigweed, palmer [10]; [18]): 20; Plant response rating, Horseweed (horseweed; [18]): 0; Plant response rating, Blackgrass (blackgrass [13]; [18]): 0; Plant response rating, Galium (galium; [18]): 50 |
| Cc1cnc(-c2cccc(C(=O)N3C[C@H](C)Oc4c(C)cccc43)c2)s1 [Compound 243] | 0 | 0 | 10 | 30 | 0 | 0 | 50 | – | 70 | 60 | 70 | 60 | 40 | 0 | 0 | 60 | – | – | – | 10 | – |
| C[C@H]1CN(C(=O)c2cccc(-c3cnnn3C)c2)c2cccc(Cl)c2O1 [Compound 239] | 80 | 30 | 40 | 0 | 30 | 50 | 0 | – | 70 | 70 | 100 | 50 | 30 | 10 | 30 | 70 | – | – | – | 30 | Plant response rating, Corn (corn [15]): 0; Plant response rating, Corn (corn [16]): 0 |
| Cc1ccn(-c2cccc(C(=O)N3C[C@H](C)Oc4c(Cl)cccc43)c2)n1 [Compound 206] | 30 | 0 | 20 | 0 | 0 | 0 | 40 | – | 80 | 50 | 20 | 30 | 0 | 0 | 10 | 40 | – | – | – | 0 | – |
| Cc1ncc(-c2cccc(C(=O)N3C[C@H](C)Oc4c(C)cccc43)c2)cn1 [Compound 161] | 0 | 0 | – | 80 | – | – | – | – | 80 | – | 70 | 50 | – | – | 30 | – | 30 | 10 | 50 | 10 | Plant response rating, Ryegrass, Italian (ryegrass, Italian [7]; [18]): 20; Plant response rating, Pigweed, Palmer (pigweed, palmer [10]; [18]): 0; Plant response rating, Horseweed (horseweed; [18]): 10; Plant response rating, Blackgrass (blackgrass [13]; [18]): 50; Plant response rating, Galium (galium; [18]): 50 |
